Here are results for nine compounds from ChEMBL document CHEMBL1201862, “PubChem BioAssay data set” (2004).

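Protocol summary: plate cells (96-well), add compound at 5 concentrations, incubate 48 h, interpolate endpoints linearly. Abbreviation: GI50, concentration required for 50% inhibition of growth.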 Active and inactive are the calls of the source. Rule as the data show it: active = GI50 up to about 1.1 µM and inactive = higher.

Test systems include Hs-578T; OVCAR-5; CAKI-1; MCF7; SK-OV-3; ACHN; NCI-H226; NCI-H23; MOLT-4; NCI/ADR-RES; M14; SK-MEL-5; A498; HCT-15; DU-145; U-251; MDA-MB-435; NCI-H522; TK-10; OVCAR-8.
Assay in all cases: NCI tumour cell line growth inhibition, 48 h

With `Cc1cc(Cl)ccc1OCC(=O)Nc1nc(N)nc(N)n1`, the GI50 with Hs-578T, in the experiment with OVCAR-5, with CAKI-1, with MCF7, in the experiment on SK-OV-3 and in the experiment with ACHN was > 100 µM (inactive) each time. Besides, the GI50 in the experiment with NCI-H226, in the experiment on NCI-H23, in the experiment with MOLT-4, with NCI/ADR-RES, in the experiment on M14 and in the experiment on SK-MEL-5 was > 100 µM (inactive) in each case. The GI50 in the experiment on A498 is > 100 µM (inactive); with HCT-15 it was more than 100 µM; with DU-145 it was > 100 µM (inactive); with U-251, > 100 µM (inactive); with MDA-MB-435, > 100 µM (inactive); in the experiment with NCI-H522 it was > 100 µM (inactive). The GI50 in the experiment with TK-10 and in the experiment on OVCAR-8 was > 100 µM (inactive) each time.

As to `O=C(Nc1ccc2nc(-c3ccccc3)cn2c1)Oc1ccccc1`, the GI50 is > 100 µM (inactive) with Hs-578T; 78.2 µM (inactive) with OVCAR-5; 97.9 µM (inactive) with CAKI-1; 35.4 µM (inactive) with MCF7; > 100 µM (inactive) in the experiment with SK-OV-3; > 100 µM (inactive) with ACHN. The GI50 with NCI-H226 is > 100 µM (inactive); with NCI-H23, 99.1 µM (inactive); in the experiment on MOLT-4 it was 40.6 µM (inactive); in the experiment with NCI/ADR-RES, 33.8 µM (inactive); with M14, 39.2 µM (inactive); with SK-MEL-5 it was 59.7 µM (inactive). Further, the GI50 in the experiment with A498 is 71.3 µM (inactive); in the experiment on HCT-15 it was 45.1 µM; with DU-145, 41.7 µM (inactive); in the experiment on U-251 it was 52.7 µM (inactive); in the experiment with MDA-MB-435 it was 13.9 µM (inactive); in the experiment with NCI-H522, 20.2 µM (inactive). In addition, the GI50 with TK-10 was 53.7 µM (inactive); with OVCAR-8, 59.7 µM (inactive).

With `CC(=O)c1ccc(Nc2nc3ccccc3c3occc23)cc1`, the GI50 was 15.3 µM (inactive) in the experiment on Hs-578T; 36 µM (inactive) with OVCAR-5; 3.26 µM (inactive) in the experiment on CAKI-1; 8.22 µM (inactive) in the experiment on MCF7; 18.4 µM (inactive) in the experiment on SK-OV-3; 11.1 µM (inactive) in the experiment with ACHN. Besides, the GI50 in the experiment on NCI-H226 is 17 µM (inactive); in the experiment with NCI-H23 it was 12.2 µM (inactive); in the experiment with MOLT-4 it was 1.85 µM (inactive); in the experiment with NCI/ADR-RES it was 11.9 µM (inactive); with M14, 14.1 µM (inactive); in the experiment with SK-MEL-5 it was 12.1 µM (inactive). Also, the GI50 in the experiment with A498 is 2.99 µM (inactive); in the experiment on HCT-15 it was 5.08 µM; in the experiment with DU-145, 16.6 µM (inactive); in the experiment with U-251, 18.8 µM (inactive); in the experiment on MDA-MB-435, 3.08 µM (inactive); in the experiment on NCI-H522 it was 2.88 µM (inactive). The GI50 with TK-10 was 7.1 µM (inactive); in the experiment on OVCAR-8, 32.5 µM (inactive).

As to `COc1cc2c(cc1OC)C(=O)N(c1ccc(OCCN3CCCC3)cc1)C2=O`, the GI50 with Hs-578T, in the experiment on OVCAR-5, with CAKI-1, in the experiment with MCF7, with SK-OV-3 and in the experiment on ACHN was > 100 µM (inactive) each time. Besides, the GI50 in the experiment with NCI-H226, in the experiment with NCI-H23, with MOLT-4, in the experiment on NCI/ADR-RES, with M14 and in the experiment with SK-MEL-5 was > 100 µM (inactive) throughout. Moreover, the GI50 in the experiment with A498 was > 100 µM (inactive); in the experiment with HCT-15 it was more than 100 µM; in the experiment on DU-145, > 100 µM (inactive); with U-251, > 100 µM (inactive); with MDA-MB-435 it was > 100 µM (inactive); with NCI-H522, > 100 µM (inactive). Further, the GI50 in the experiment on TK-10 and with OVCAR-8 was > 100 µM (inactive) throughout.

In the case of `C=CCn1c(-c2ccc(-c3cs/c(=N\N=O)n3CC=C)cc2)cs/c1=N\N=O`, the GI50 in the experiment on Hs-578T is 45.9 µM (inactive); in the experiment on OVCAR-5, > 100 µM (inactive); in the experiment on CAKI-1 it was > 100 µM (inactive); with MCF7, > 100 µM (inactive); in the experiment on SK-OV-3 it was 40.7 µM (inactive); with ACHN it was > 100 µM (inactive). For the same compound, the GI50 in the experiment with NCI-H226, in the experiment with NCI-H23, in the experiment with MOLT-4, in the experiment on NCI/ADR-RES, in the experiment on M14 and in the experiment on SK-MEL-5 was > 100 µM (inactive) throughout. Besides, the GI50 is > 100 µM (inactive) with A498; more than 100 µM in the experiment with HCT-15; > 100 µM (inactive) in the experiment on DU-145; 61.1 µM (inactive) in the experiment on U-251; > 100 µM (inactive) in the experiment with MDA-MB-435; 83.2 µM (inactive) with NCI-H522. The GI50 was > 100 µM (inactive) in the experiment with TK-10 and 88.1 µM (inactive) with OVCAR-8.

For the compound `COc1cc(OC)cc(C(=O)NC2=C(Cl)C(=O)c3ccccc3C2=O)c1`, the GI50 in the experiment on Hs-578T was 3.3 µM (inactive); with OVCAR-5, 4.92 µM (inactive); with CAKI-1 it was 5.4 µM (inactive); in the experiment with MCF7 it was 2.84 µM (inactive); in the experiment with SK-OV-3, 2.49 µM (inactive); with ACHN it was 0.78 µM (active). Further, the GI50 with NCI-H226 is 3.3 µM (inactive); in the experiment on NCI-H23, 2.43 µM (inactive); in the experiment on MOLT-4, 1.67 µM (inactive); in the experiment on NCI/ADR-RES, 2.28 µM (inactive); in the experiment with M14 it was 1.07 µM (active); in the experiment with SK-MEL-5 it was 2.04 µM (inactive). Also, the GI50 is 14.1 µM (inactive) in the experiment with A498; 0.94 µM in the experiment on HCT-15; 4.58 µM (inactive) with DU-145; 1.94 µM (inactive) with U-251; 1.95 µM (inactive) with MDA-MB-435; 0.728 µM (active) in the experiment with NCI-H522. Also, the values for the GI50 in the experiment with TK-10 and in the experiment on OVCAR-8 were 2.81 µM (inactive) and 3.1 µM (inactive), respectively.

For the compound `CCOC(=O)c1c(C)[nH]c2c1c(CN(C)C)c(O)c1nc(C)c(C)nc12`, the GI50 is 22.8 µM (inactive) in the experiment with Hs-578T; 28.4 µM (inactive) in the experiment with OVCAR-5; 28.4 µM (inactive) with CAKI-1; 17.9 µM (inactive) with MCF7; 32.3 µM (inactive) in the experiment with SK-OV-3; 20.5 µM (inactive) in the experiment on ACHN. Also, the GI50 was 22.2 µM (inactive) in the experiment with NCI-H226; 27.8 µM (inactive) in the experiment with NCI-H23; 16 µM (inactive) with MOLT-4; 24.2 µM (inactive) in the experiment with NCI/ADR-RES; 36.1 µM (inactive) with M14; 15 µM (inactive) in the experiment with SK-MEL-5. In addition, the GI50 with A498 is 15.2 µM (inactive); with HCT-15 it was 26.4 µM; with DU-145, 26.2 µM (inactive); with U-251 it was 24.3 µM (inactive); in the experiment on MDA-MB-435, 25.6 µM (inactive); in the experiment with NCI-H522, 16.3 µM (inactive). In addition, the figures for the GI50 with TK-10 and in the experiment with OVCAR-8 were 24.2 µM (inactive) and 21.4 µM (inactive), respectively.

In the case of `O=[N+]([O-])c1ccc2c(c1)Nc1c3ccccc3nc3cccc-2c13`, the GI50 in the experiment with Hs-578T was 6.53 µM (inactive); with OVCAR-5, 6.93 µM (inactive); in the experiment with CAKI-1, 4.67 µM (inactive); in the experiment with MCF7, 0.219 µM (active); with SK-OV-3 it was 2.04 µM (inactive); in the experiment on ACHN it was 18.1 µM (inactive). In addition, the GI50 with NCI-H226 was 25.9 µM (inactive); in the experiment on NCI-H23, 4.85 µM (inactive); in the experiment on MOLT-4 it was 0.895 µM (active); in the experiment on NCI/ADR-RES, 2.82 µM (inactive); in the experiment on M14, 3.21 µM (inactive); in the experiment with SK-MEL-5 it was 0.883 µM (active). Moreover, the GI50 in the experiment on A498 was 34.5 µM (inactive); in the experiment with HCT-15, 3.56 µM; with DU-145 it was 0.593 µM (active); with U-251, 3.18 µM (inactive); with MDA-MB-435, 4.23 µM (inactive); with NCI-H522, 3.44 µM (inactive). Besides, the GI50 with TK-10 is 5.38 µM (inactive); in the experiment with OVCAR-8, 1.17 µM (inactive).

With `C=CC(C1=CC(=O)C(OC)=CC1=O)c1ccccc1` (stereo not given) [4-METHOXYDALBERGIONE], the GI50 in the experiment on Hs-578T was 17.8 µM (inactive); with OVCAR-5 it was 20.3 µM (inactive); in the experiment on CAKI-1, 17.2 µM (inactive); in the experiment with MCF7, 7.48 µM (inactive); in the experiment with SK-OV-3, 17.3 µM (inactive); with ACHN, 14.3 µM (inactive). Further, the GI50 with NCI-H226 is 17.1 µM (inactive); in the experiment on NCI-H23 it was 16.1 µM (inactive); in the experiment with MOLT-4 it was 2.16 µM (inactive); in the experiment with NCI/ADR-RES it was 18.5 µM (inactive); with M14 it was 17.9 µM (inactive); in the experiment on SK-MEL-5, 16.3 µM (inactive). Moreover, the GI50 was > 51.2 µM (inactive) with A498; 14.3 µM with HCT-15; 16.5 µM (inactive) in the experiment with DU-145; 15.6 µM (inactive) in the experiment on U-251; 13.8 µM (inactive) with MDA-MB-435; 6.93 µM (inactive) with NCI-H522. For the same compound, the GI50 is 18.1 µM (inactive) in the experiment on TK-10 and 20.5 µM (inactive) in the experiment on OVCAR-8.
